Test results from patent publication US12202823B2 (QUIMATRYX, S.L., priority 2019, dated 2025).

Biological target: hHDAC6 (Homo sapiens (Human), UniProt Q9UBN7)
Assay: HDAC6 inhibition protocol
Conditions: read-out: IC50 (nM) of enzyme activity HDAC6; hHDAC6 1.20 nM, Acetylated Peptide A 2 μM, 1 hour at RT
Experimental: After enzymatic reactions, reaction was stopped by adding 5 μl of 10 μM solution of a known inhibitor. The fluorescent signal of substrate and product was measured by means of microfluidics mobility assay in a EZ Reader II equipment. The percentage of conversion of substrate into product was calculated by the equipment software based on the area of the peaks.
The percentage of conversion data were analyzed using the computer software, Graphpad Prism. In the absence of the compound, the conversion (Ct) in each data set was defined as 100% activity. In the absence of HDAC, the conversion (Cb) in each data set was defined as 0% activity. The percent activity in the presence of each compound was calculated according to the following equation: % inhibition=(Ct−C)/(Ct−Cb), where C=the percentage of conversion in the presence of the compound.
The values of % inhibition versus a series of compound concentrations were then plotted using non-linear regression analysis of Sigmoidal dose-response curve generated with the equation Y=B+(T−B)/1+10((Log EC50−X)×Hill Slope), where Y=percent inhibition, B=minimum percent inhibition, T=maximum percent inhibition, X=logarithm of compound and Hill Slope=slope factor or Hill coefficient. The IC50 value was determined by the concentration causing a half-maximal percent activity.
The buffer assay used in the inhibition hHDAC6 assay is: Hepes 50 mM, KCl 100 mM, Tween 20 0.001%, BSA 0.01%; pH=7.4.

hHDAC6, sequence (Q9UBN7 whole entry): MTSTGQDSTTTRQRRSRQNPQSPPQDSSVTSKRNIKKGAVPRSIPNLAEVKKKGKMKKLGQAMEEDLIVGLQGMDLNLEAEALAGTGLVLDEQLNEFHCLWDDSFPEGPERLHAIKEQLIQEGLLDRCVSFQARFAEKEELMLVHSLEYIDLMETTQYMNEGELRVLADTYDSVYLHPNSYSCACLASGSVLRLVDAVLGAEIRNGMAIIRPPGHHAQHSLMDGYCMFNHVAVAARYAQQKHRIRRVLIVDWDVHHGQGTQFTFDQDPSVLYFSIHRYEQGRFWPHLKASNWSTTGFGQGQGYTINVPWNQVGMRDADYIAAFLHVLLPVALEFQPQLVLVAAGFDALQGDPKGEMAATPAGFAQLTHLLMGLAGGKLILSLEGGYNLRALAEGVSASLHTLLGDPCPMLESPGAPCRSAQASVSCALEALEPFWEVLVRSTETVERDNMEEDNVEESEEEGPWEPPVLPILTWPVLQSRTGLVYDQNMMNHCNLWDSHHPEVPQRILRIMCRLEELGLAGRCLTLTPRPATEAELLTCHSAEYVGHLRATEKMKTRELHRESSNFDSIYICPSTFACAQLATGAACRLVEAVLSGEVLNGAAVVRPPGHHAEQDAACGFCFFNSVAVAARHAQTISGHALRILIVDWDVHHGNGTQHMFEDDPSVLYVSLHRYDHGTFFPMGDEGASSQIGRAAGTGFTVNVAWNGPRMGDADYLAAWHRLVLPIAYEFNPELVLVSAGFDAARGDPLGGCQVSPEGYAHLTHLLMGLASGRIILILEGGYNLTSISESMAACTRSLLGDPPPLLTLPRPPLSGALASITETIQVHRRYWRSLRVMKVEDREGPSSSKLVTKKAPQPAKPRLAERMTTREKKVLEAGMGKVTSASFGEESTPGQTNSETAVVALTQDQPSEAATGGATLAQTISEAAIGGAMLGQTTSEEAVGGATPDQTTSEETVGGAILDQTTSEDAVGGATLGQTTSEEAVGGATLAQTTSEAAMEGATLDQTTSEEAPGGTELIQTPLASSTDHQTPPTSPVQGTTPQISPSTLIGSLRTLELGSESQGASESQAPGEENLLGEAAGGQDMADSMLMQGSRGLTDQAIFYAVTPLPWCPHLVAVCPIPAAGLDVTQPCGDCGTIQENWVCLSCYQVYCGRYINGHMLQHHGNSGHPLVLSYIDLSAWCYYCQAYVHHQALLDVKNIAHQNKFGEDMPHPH

| Compound | IC50 [nM] |
| --- | --- |
| Cc1cccc2nnn(Cc3ccc(-c4nnc(C(F)F)o4)cc3)c12 [Example 12] | 190 |
| FC(F)c1nnc(-c2ccc(Cn3nnc4cc(Br)ccc43)nc2)o1 [Example 64, 2-(6-((5-bromo-1H-benzo[d][1,2,3]triazol-1-yl)methyl)pyridin-3-yl)-5-(difluoromethyl)-1,3,4-oxadiazole] | 48.7 |
| Cc1nc2cc(Cl)c(Cl)cc2n1Cc1ccc(-c2nnc(C(F)F)o2)cn1 [Example 60, 2-(6-((5,6-dichloro-2-methyl-1H-benzo[d]imidazol-1-yl)methyl)pyridin-3-yl)-5-(difluoromethyl)-1,3,4-oxadiazole] | 42.3 |
| FC(F)c1nnc(-c2ccc(Cn3cc(-c4ccccc4)nn3)nc2)o1 [Example 41, 2-(difluoromethyl)-5-(6-((4-phenyl-1H-1,2,3-triazol-1-yl)methyl)pyridin-3-yl)-1,3,4-oxadiazole] | 40.9 |
| FC(F)c1nnc(-c2ccc(Cn3cnc4cc(Cl)c(Cl)cc43)cc2)o1 [Example 10, 2-(4-((5,6-dichloro-1H-benzo[d]imidazol-1-yl)methyl)phenyl)-5-(difluoromethyl)-1,3,4-oxadiazole] | 60.2 |
| FC(F)c1nnc(-c2ccc(Cn3cnc4ccc(Br)cc43)nc2)o1 [Example 62, 2-(6-((6-bromo-1H-benzo[d]imidazol-1-yl)methyl)pyridin-3-yl)-5-(difluoromethyl)-1,3,4-oxadiazole] | 61.8 |
| FC(F)c1nnc(-c2ccc(Cn3cc(-c4ccc(Cl)c(Cl)c4)nn3)nc2)o1 [Example 46, 2-(6-((4-(3,4-dichlorophenyl)-1H-1,2,3-triazol-1-yl)methyl)pyridin-3-yl)-5-(difluoromethyl)-1,3,4-oxadiazole] | 37.9 |
| FC(F)c1nnc(-c2ccc(Cn3nnc4ccccc43)nc2)o1 [Example 21, 2-(6-((1H-benzo[d][1,2,3]triazol-1-yl)methyl)pyridin-3-yl)-5-(difluoromethyl)-1,3,4-oxadiazole] | 103 |
| Cc1cc2ncn(Cc3ccc(-c4nnc(C(F)F)o4)cn3)c2cc1C [Example 61, 2-(difluoromethyl)-5-(6-((5,6-dimethyl-1H-benzo[d]imidazol-1-yl)methyl)pyridin-3-yl)-1,3,4-oxadiazole] | 187 |
| FC(F)c1nnc(-c2ccc(Cn3cc(-c4ccccc4Cl)nn3)nc2)o1 [Example 44, 2-(6-((4-(2-chlorophenyl)-1H-1,2,3-triazol-1-yl)methyl)pyridin-3-yl)-5-(difluoromethyl)-1,3,4-oxadiazole] | 37.1 |
| Fc1cc(F)cc(-c2cn(Cc3ccc(-c4nnc(C(F)F)o4)cn3)nn2)c1 [Example 56, 2-(difluoromethyl)-5-(6-((4-(3,5-difluorophenyl)-1H-1,2,3-triazol-1-yl)methyl)pyridin-3-yl)-1,3,4-oxadiazole] | 66.5 |
| FC(F)c1nnc(-c2ccc(Cn3nc4ccc(Br)cc4n3)nc2)o1 [Example 66, 2-(6-((5-bromo-2H-benzo[d][1,2,3]triazol-2-yl)methyl)pyridin-3-yl)-5-(difluoromethyl)-1,3,4-oxadiazole] | 33.3 |
| FC(F)c1nnc(-c2ccc(Cn3cnc4cc(Br)ccc43)nc2)o1 [Example 63, 2-(6-((5-bromo-1H-benzo[d]imidazol-1-yl)methyl)pyridin-3-yl)-5-(difluoromethyl)-1,3,4-oxadiazole] | 48.3 |
| FC(F)c1nnc(-c2ccc(Cn3nnc(-c4ccccc4)c3Cl)nc2)o1 [Example 52, 2-(6-((5-chloro-4-phenyl-1H-1,2,3-triazol-1-yl)methyl)pyridin-3-yl)-5-(difluoromethyl)-1,3,4-oxadiazole] | 48.4 |
| FC(F)c1nnc(-c2ccc(Cn3nnc(-c4ccccc4Cl)c3Cl)nc2)o1 [Example 53, 2-(6-((5-chloro-4-(2-chlorophenyl)-1H-1,2,3-triazol-1-yl)methyl)pyridin-3-yl)-5-(difluoromethyl)-1,3,4-oxadiazole] | 81.5 |
| FC(F)c1nnc(-c2ccc(Cn3c(C(F)(F)F)nc4cc(Cl)c(Cl)cc43)nc2)o1 [Example 58, 2-(6-((5,6-dichloro-2-(trifluoromethyl)-1H-benzo[d]imidazol-1-yl)methyl)pyridin-3-yl)-5-(difluoromethyl)-1,3,4-oxadiazole] | 121 |
| FC(F)c1nnc(-c2ccc(Cn3cc(C4CCCCC4)nn3)cc2)o1 [Example 32, 2-(4-((4-cyclohexyl-1H-1,2,3-triazol-1-yl)methyl)phenyl)-5-(difluoromethyl)-1,3,4-oxadiazole] | 475 |
| FC(F)c1nnc(-c2ccc(Cn3cc(-c4ccccc4)nn3)cn2)o1 [Example 42, 2-(difluoromethyl)-5-(5-((4-phenyl-1H-1,2,3-triazol-1-yl)methyl)pyridin-2-yl)-1,3,4-oxadiazole] | 1990 |
| FC(F)c1nnc(-c2ccc(C(Cl)n3cc(-c4ccccc4)nn3)nc2)o1 (stereo not shown) [Example 55, 2-(6-(chloro(4-phenyl-1H-1,2,3-triazol-1-yl)methyl)pyridin-3-yl)-5-(difluoromethyl)-1,3,4-oxadiazole] | 58.2 |
| Fc1cc(-c2cn(Cc3ccc(-c4nnc(C(F)F)o4)cn3)nn2)cc(F)c1F [Example 57, 2-(difluoromethyl)-5-(6-((4-(3,4,5-trifluorophenyl)-1H-1,2,3-triazol-1-yl)methyl)pyridin-3-yl)-1,3,4-oxadiazole] | 149 |
| FC(F)c1nnc(-c2ccc(Cn3cc(-c4ccc(Cl)cc4)nn3)cc2)o1 [Example 29, 2-(4-((4-(4-chlorophenyl)-1H-1,2,3-triazol-1-yl)methyl)phenyl)-5-(difluoromethyl)-1,3,4-oxadiazole] | 95.6 |
| Fc1cccc(F)c1-c1cn(Cc2ccc(-c3nnc(C(F)F)o3)cn2)nn1 [Example 49, 2-(difluoromethyl)-5-(6-((4-(2,6-difluorophenyl)-1H-1,2,3-triazol-1-yl)methyl)pyridin-3-yl)-1,3,4-oxadiazole] | 66.7 |
| COc1cccc(-c2cn(Cc3ccc(-c4nnc(C(F)F)o4)cn3)nn2)c1 [Example 50] | 43.5 |
| Fc1ccccc1-c1nnn(Cc2ccc(-c3nnc(C(F)F)o3)cn2)c1Cl [Example 67, 2-(6-((5-chloro-4-(2-fluorophenyl)-1H-1,2,3-triazol-1-yl)methyl)pyridin-3-yl)-5-(difluoromethyl)-1,3,4-oxadiazole] | 67.4 |

Further lines, results first:

| IC50 [nM] | Compound |
| --- | --- |
| 149 | CC(c1ccc(-c2nnc(C(F)F)o2)cc1)n1cc(-c2ccccc2)nn1 (stereo not shown) [Example 37, 2-(difluoromethyl)-5-(4-(1-(4-phenyl-1H-1,2,3-triazol-1-yl)ethyl)phenyl)-1,3,4-oxadiazole] |
| 129 | FC(F)c1nnc(-c2ccc(Cn3nnc4ccc(Cl)cc43)cc2)o1 [Example 13, 2-(4-((6-chloro-1H-benzo[d][1,2,3]triazol-1-yl)methyl)phenyl)-5-(difluoromethyl)-1,3,4-oxadiazole] |
| 686 | Cc1nnn(Cc2ccc(-c3nnc(C(F)F)o3)cc2)c1-c1ccccc1 [Example 40, 2-(difluoromethyl)-5-(4-((4-methyl-5-phenyl-1H-1,2,3-triazol-1-yl)methyl)phenyl)-1,3,4-oxadiazole] |
| 214 | CC1(C)C(=O)N(Cc2ccc(-c3nnc(C(F)F)o3)cc2)c2ccccc21 [Example 15, 1-(4-(5-(difluoromethyl)-1,3,4-oxadiazol-2-yl)benzyl)-3,3-dimethylindolin-2-one] |
| 48.3 | FC(F)c1nnc(-c2ccc(Cn3cnc(-c4ccccc4)c3)nc2)o1 [Example 26, 2-(difluoromethyl)-5-(6-((4-phenyl-1H-imidazol-1-yl)methyl)pyridin-3-yl)-1,3,4-oxadiazole] |
| 87.9 | FC(F)c1nnc(-c2ccc(Cn3nnc(-c4ccccc4)c3Cl)cc2)o1 [Example 51, 2-(4-((5-chloro-4-phenyl-1H-1,2,3-triazol-1-yl)methyl)phenyl)-5-(difluoromethyl)-1,3,4-oxadiazole] |
| 202 | FC(F)c1nnc(-c2ccc(Cn3cc(-c4cccnc4)nn3)cc2)o1 [Example 34, 2-(difluoromethyl)-5-(4-((4-(pyridin-3-yl)-1H-1,2,3-triazol-1-yl)methyl)phenyl)-1,3,4-oxadiazole] |
| 266 | FC(F)c1nnc(-c2ccc(Cn3nnc(-c4ccccc4)c3-c3ccccc3)cc2)o1 [Example 38, 2-(difluoromethyl)-5-(4-((4,5-diphenyl-1H-1,2,3-triazol-1-yl)methyl)phenyl)-1,3,4-oxadiazole] |
| 589 | CC(c1ccc(-c2nnc(C(F)F)o2)cc1)n1cnc2ccccc21 (stereo not shown) [Example 20, 2-(4-(1-(1H-benzo[d]imidazol-1-yl)ethyl)phenyl)-5-(difluoromethyl)-1,3,4-oxadiazole] |
| 920 | FC(F)c1nnc(-c2ccc(Cn3nnnc3-c3ccccc3)cc2)o1 [Example 17, 2-(difluoromethyl)-5-(4-((5-phenyl-1H-tetrazol-1-yl)methyl)phenyl)-1,3,4-oxadiazole] |
| 387 | FC(F)c1nnc(-c2ccc(Cn3cnc4ccccc43)cc2)o1 [Example 8, 2-(4-((1H-benzo[d]imidazol-1-yl)methyl)phenyl)-5-(difluoromethyl)-1,3,4-oxadiazole] |
| 4910 | FC(F)c1nnc(-c2ccc(Cn3ccc4cnccc43)cc2)o1 [Example 3, 2-(4-((1H-pyrrolo[3,2-c]pyridin-1-yl)methyl)phenyl)-5-(difluoromethyl)-1,3,4-oxadiazole] |
| 105 | FC(F)c1nnc(-c2ccc(Cn3cc(-c4cccs4)nn3)cc2)o1 [Example 36, 2-(difluoromethyl)-5-(4-((4-(thiophen-2-yl)-1H-1,2,3-triazol-1-yl)methyl)phenyl)-1,3,4-oxadiazole] |
| 3040 | FC(F)c1nnc(-c2ccc(Cn3ccc4ccccc43)cc2)o1 [Example 1, 2-(4-((1H-indol-1-yl)methyl)phenyl)-5-(difluoromethyl)-1,3,4-oxadiazole] |
| 1160 | O=c1n(-c2ccccc2)cnn1Cc1ccc(-c2nnc(C(F)F)o2)cc1 [Example 18, 1-(4-(5-(difluoromethyl)-1,3,4-oxadiazol-2-yl)benzyl)-4-phenyl-1H-1,2,4-triazol-5(4H)-one] |
| 1040 | FC(F)c1nnc(-c2ccc(Cn3ccc4ncccc43)cc2)o1 [Example 2, 2-(4-((1H-pyrrolo[3,2-b]pyridin-1-yl)methyl)phenyl)-5-(difluoromethyl)-1,3,4-oxadiazole] |
